Measurements: US12479847B2 (DANA-FARBER CANCER INSTITUTE, INC., priority 2019, dated 2025)

What was measured:
Assay in all cases: KINOMEscan (ScanMAX) kinase profiling
Format in all cases: binding
panel of 468 kinases [1] = molecular target: T1, panel of 468 kinases (Homo sapiens, UniProt O94806); details: PRKD3; 1 μM; read-out: % control
T1 construct: purchased KINOMEscan (ScanMAX) service
T1 sequence (O94806 1-890): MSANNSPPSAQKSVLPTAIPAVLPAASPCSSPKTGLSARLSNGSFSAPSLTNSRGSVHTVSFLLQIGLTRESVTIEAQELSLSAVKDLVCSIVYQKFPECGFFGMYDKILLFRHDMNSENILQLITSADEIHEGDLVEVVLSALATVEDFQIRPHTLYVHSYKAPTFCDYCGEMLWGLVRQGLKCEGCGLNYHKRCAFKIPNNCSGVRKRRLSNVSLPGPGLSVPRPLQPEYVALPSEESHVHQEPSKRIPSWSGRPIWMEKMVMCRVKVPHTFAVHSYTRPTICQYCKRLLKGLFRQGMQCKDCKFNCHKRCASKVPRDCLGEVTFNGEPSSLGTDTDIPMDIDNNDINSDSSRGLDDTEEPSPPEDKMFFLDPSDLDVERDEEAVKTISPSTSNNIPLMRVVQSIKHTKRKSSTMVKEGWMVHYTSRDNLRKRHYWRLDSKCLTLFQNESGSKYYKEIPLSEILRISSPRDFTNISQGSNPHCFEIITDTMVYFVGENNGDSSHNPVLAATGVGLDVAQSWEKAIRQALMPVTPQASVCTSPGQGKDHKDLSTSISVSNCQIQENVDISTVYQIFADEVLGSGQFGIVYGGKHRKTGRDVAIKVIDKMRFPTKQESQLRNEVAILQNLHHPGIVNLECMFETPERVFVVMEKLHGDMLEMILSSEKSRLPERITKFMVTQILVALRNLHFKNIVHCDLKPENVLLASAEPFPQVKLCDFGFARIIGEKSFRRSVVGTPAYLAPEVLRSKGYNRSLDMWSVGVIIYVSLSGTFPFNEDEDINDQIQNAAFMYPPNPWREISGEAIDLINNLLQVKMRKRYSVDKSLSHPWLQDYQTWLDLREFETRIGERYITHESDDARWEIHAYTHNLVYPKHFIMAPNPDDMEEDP

panel of 468 kinases [2] = molecular target: T2, panel of 468 kinases (Homo sapiens, UniProt P49761); details: CLK3; 1 μM; read-out: % control
T2 construct: purchased KINOMEscan (ScanMAX) service
T2 sequence (P49761 whole entry): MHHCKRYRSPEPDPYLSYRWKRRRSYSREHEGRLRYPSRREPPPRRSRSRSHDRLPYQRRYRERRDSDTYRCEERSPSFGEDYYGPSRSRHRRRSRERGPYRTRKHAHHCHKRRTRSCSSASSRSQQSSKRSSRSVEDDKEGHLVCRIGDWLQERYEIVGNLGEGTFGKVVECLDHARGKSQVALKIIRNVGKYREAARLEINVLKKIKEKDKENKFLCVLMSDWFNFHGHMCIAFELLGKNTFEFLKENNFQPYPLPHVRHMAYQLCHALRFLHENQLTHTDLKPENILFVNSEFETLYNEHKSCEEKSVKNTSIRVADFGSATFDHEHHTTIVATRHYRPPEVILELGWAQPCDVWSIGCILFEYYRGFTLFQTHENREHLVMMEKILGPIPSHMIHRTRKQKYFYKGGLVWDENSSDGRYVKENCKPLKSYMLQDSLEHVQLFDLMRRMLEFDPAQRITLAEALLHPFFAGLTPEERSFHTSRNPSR

panel of 468 kinases [3] = molecular target: T3, panel of 468 kinases (Homo sapiens, UniProt P15056, V600E); details: BRAF(V600E); 1 μM; read-out: % control
T3 construct: purchased KINOMEscan (ScanMAX) service
T3 sequence (P15056 whole entry V600E): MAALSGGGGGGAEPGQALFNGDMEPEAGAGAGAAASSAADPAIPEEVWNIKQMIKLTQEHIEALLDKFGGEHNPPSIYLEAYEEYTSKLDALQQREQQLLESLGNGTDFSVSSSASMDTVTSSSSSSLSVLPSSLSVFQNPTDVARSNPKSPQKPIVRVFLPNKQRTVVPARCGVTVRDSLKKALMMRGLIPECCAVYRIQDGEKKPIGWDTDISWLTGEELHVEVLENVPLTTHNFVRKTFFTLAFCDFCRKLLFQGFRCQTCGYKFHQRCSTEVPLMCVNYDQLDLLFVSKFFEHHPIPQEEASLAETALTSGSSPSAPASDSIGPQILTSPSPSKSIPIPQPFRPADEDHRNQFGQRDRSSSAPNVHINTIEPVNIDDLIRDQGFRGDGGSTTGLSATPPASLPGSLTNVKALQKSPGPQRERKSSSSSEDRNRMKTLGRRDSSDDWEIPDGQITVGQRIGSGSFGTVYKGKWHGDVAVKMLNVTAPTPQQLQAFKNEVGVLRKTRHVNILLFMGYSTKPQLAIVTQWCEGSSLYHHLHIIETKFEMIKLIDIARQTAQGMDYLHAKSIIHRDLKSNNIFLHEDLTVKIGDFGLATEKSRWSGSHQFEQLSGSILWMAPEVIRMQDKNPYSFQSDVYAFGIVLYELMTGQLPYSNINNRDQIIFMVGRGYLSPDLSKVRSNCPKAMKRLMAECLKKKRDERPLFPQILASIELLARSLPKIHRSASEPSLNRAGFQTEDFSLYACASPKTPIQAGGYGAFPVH

panel of 468 kinases [4] = molecular target: T4, panel of 468 kinases (Homo sapiens, UniProt P49840); details: GSK3A; 1 μM; read-out: % control
T4 construct: purchased KINOMEscan (ScanMAX) service
T4 sequence (P49840 whole entry): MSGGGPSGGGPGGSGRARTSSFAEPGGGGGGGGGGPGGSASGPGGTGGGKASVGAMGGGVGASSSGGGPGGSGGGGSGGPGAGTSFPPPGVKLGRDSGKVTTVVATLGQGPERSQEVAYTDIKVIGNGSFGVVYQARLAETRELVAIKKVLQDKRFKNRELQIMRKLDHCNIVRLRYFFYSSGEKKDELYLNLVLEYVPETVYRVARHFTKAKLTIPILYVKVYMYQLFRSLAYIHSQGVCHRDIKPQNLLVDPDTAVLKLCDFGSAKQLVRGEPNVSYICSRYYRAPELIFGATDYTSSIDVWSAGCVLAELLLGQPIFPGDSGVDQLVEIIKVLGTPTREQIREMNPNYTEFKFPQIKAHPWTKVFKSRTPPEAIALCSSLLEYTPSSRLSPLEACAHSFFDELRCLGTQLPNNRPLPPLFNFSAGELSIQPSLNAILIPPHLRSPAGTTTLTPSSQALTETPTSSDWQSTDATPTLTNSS

panel of 468 kinases [5] = molecular target: T5, panel of 468 kinases (Homo sapiens, UniProt P50750); details: CDK9; 1 μM; read-out: % control
T5 construct: purchased KINOMEscan (ScanMAX) service
T5 sequence (P50750 whole entry): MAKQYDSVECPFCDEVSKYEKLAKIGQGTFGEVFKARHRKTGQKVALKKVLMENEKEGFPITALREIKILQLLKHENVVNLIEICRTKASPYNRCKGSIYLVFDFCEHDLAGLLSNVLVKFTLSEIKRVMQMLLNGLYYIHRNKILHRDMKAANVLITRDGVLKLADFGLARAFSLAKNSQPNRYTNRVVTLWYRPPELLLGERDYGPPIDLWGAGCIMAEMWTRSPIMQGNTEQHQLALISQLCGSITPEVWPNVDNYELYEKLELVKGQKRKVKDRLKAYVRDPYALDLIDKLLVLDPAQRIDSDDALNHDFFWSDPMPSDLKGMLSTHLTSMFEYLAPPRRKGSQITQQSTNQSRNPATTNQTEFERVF

panel of 468 kinases [6] = molecular target: T6, panel of 468 kinases (Homo sapiens, UniProt Q9UEE5); details: DRAK1; 1 μM; read-out: % control
T6 construct: purchased KINOMEscan (ScanMAX) service
T6 sequence (Q9UEE5 1-414): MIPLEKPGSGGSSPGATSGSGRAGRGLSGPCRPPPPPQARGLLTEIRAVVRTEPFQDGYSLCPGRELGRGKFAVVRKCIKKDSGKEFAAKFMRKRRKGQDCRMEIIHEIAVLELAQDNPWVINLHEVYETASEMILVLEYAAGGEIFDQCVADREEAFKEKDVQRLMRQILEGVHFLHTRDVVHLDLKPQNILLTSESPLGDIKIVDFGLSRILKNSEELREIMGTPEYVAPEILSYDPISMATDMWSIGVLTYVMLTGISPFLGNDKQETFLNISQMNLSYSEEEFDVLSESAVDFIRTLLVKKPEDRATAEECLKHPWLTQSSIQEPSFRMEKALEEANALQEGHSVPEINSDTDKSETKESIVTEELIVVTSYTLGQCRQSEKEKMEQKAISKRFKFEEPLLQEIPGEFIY

panel of 468 kinases [7] = molecular target: T7, panel of 468 kinases (Homo sapiens, UniProt P53779); details: JNK3; 1 μM; read-out: % control
T7 construct: purchased KINOMEscan (ScanMAX) service
T7 sequence (P53779 whole entry): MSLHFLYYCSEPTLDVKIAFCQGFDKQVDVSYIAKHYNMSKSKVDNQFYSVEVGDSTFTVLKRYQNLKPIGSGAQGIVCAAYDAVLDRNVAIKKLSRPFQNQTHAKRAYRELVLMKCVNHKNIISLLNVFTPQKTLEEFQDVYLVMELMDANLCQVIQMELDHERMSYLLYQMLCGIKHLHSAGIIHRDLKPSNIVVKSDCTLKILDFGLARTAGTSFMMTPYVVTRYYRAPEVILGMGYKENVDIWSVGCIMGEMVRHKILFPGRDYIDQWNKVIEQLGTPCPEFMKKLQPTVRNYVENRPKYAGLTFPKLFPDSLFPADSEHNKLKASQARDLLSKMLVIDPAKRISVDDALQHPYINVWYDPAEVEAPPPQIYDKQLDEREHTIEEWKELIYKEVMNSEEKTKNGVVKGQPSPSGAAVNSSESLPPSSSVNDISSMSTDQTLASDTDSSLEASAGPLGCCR

panel of 468 kinases [8] = molecular target: T8, panel of 468 kinases (Homo sapiens, UniProt P51957); details: NEK4; 1 μM; read-out: % control
T8 construct: purchased KINOMEscan (ScanMAX) service
T8 sequence (P51957 whole entry): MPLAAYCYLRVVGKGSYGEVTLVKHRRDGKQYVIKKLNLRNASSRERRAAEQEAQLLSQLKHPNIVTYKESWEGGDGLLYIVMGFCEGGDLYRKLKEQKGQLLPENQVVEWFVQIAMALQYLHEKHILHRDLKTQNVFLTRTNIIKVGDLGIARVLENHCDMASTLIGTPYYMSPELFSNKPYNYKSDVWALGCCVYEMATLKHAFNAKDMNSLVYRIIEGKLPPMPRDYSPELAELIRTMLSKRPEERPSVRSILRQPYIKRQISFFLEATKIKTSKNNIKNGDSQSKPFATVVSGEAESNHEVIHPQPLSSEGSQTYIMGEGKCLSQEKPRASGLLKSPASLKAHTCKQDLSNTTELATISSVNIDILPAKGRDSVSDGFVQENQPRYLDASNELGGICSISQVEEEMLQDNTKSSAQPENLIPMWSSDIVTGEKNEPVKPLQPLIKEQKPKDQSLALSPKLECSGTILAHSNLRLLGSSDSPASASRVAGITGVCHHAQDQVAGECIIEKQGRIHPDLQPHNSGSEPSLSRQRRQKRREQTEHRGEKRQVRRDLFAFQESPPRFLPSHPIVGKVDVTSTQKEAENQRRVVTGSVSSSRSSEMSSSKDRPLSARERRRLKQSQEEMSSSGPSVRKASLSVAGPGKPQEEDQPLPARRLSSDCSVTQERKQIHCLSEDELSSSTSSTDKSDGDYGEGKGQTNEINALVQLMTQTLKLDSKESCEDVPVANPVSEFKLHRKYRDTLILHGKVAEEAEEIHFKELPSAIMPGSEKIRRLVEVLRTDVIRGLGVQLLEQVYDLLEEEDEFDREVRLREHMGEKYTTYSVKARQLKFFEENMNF

panel of 468 kinases [9] = molecular target: T9, panel of 468 kinases (Homo sapiens, UniProt Q13976); details: PRKG1; 1 μM; read-out: % control
T9 construct: purchased KINOMEscan (ScanMAX) service
T9 sequence (Q13976 1-671): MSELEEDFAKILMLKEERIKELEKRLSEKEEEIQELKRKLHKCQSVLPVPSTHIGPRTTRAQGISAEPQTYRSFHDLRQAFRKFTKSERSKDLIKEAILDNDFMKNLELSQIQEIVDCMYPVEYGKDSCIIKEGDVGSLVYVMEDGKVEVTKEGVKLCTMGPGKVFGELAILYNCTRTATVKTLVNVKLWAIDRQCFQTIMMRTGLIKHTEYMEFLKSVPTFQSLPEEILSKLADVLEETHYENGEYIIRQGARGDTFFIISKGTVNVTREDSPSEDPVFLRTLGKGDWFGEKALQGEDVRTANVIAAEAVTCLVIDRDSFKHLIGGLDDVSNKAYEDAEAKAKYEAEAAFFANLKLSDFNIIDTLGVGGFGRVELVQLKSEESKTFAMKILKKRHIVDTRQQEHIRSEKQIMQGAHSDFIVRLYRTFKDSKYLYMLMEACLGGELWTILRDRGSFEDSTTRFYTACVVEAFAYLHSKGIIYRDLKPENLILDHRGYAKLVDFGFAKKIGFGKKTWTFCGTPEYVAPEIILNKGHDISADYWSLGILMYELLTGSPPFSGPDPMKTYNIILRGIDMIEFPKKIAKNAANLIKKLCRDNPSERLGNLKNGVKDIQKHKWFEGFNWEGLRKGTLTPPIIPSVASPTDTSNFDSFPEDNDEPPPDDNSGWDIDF

panel of 468 kinases [10] = molecular target: T10, panel of 468 kinases (Homo sapiens, UniProt P28482); details: ERK2; 1 μM; read-out: % control
T10 construct: purchased KINOMEscan (ScanMAX) service
T10 sequence (P28482 whole entry): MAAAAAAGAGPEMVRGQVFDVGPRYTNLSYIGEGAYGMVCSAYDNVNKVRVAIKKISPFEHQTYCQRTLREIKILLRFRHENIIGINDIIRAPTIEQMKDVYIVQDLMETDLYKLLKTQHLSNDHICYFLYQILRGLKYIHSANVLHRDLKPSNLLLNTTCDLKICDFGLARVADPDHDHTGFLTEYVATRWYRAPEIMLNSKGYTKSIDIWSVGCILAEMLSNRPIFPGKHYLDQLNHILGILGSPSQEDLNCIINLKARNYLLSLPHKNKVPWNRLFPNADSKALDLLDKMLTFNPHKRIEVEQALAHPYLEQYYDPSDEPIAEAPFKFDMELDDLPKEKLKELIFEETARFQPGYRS

SMILES | remaining binding at 1 µM (panel of 468 kinases [1]) [%] | remaining binding at 1 µM (panel of 468 kinases [2]) [%] | remaining binding at 1 µM (panel of 468 kinases [3]) [%] | remaining binding at 1 µM (panel of 468 kinases [4]) [%] | remaining binding at 1 µM (panel of 468 kinases [5]) [%] | remaining binding at 1 µM (panel of 468 kinases [6]) [%] | remaining binding at 1 µM (panel of 468 kinases [7]) [%] | remaining binding at 1 µM (panel of 468 kinases [8]) [%] | remaining binding at 1 µM (panel of 468 kinases [9]) [%] | remaining binding at 1 µM (panel of 468 kinases [10]) [%]
CNc1nc(Nc2ccc(S(=O)(=O)N3CCC(N4CCOCC4)CC3)cc2OC)nc2[nH]cc(Cl)c12 [Compound 12, 5-chloro-N2-(2-methoxy-4-((4-morpholinopiperidin-1-yl)sulfonyl)phenyl)-N4-methyl-7H-pyrrolo[2,3-d]pyrimidine-2,4-diamine] | 28 | 77 | 91 | 91 | 100 | 100 | 16 | 100 | 100 | 100
CNc1nc(Nc2ccc(C(=O)N3CCC(N4CCOCC4)CC3)c3c2OCO3)nc2[nH]cc(Cl)c12 [Compound 75, (7-((5-chloro-4-(methylamino)-7H-pyrrolo[2,3-d]pyrimidin-2-yl)amino)benzo[d][1,3]dioxol-4-yl)(4-morpholinopiperidin-1-yl)methanone] | 4 | 58 | 100 | 87 | 100 | 2.8 | 0.25 | 100 | 100 | 100
CNc1nc(Nc2ccc(P3(=O)CCN(C4CCOCC4)CC3)cc2OC)nc2[nH]cc(Cl)c12 [Compound 77, 4-(4-((5-chloro-4-(methylamino)-7H-pyrrolo[2,3-d]pyrimidin-2-yl)amino)-3-methoxyphenyl)-1-(tetrahydro-2H-pyran-4-yl)-1,4-azaphosphinane 4-oxide] | 13 | 93 | 88 | 90 | 100 | 95 | 0.9 | 100 | 100 | 100
